The supplement of paper PMC12463676, “Small-molecule dissolution of stress granules by redox modulation benefits ALS models” (Nature Chemical Biology, 2025)

Columns and labels:
[1] = compound: NC(=O)CCCCC1CCSS1 [lipoamide]; test: thermal stability z-score vs DMSO; higher = more thermally stabilized by treatment; details: HeLa, lipoamide concentration 100 µM
Experimental: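 Cellular thermal proteome profiling in HeLa cells. Cells were treated with 100 µM lipoamide for 1 h, with or without 1 mM arsenate for a further 1 h, then heated to ten temperatures (37-66.3 °C), and soluble protein was quantified by TMT mass spectrometry relative to 0.1% DMSO controls. The thermal stability score (sum of log2 fold changes minus the abundance score) was transformed to a z-score; mean of n = 3 experiments.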

[2] = compound: O=[As]([O-])(O)O.[K+] [potassium arsenate]; test: as above; details: HeLa; arsenate concentration 1 mM
Experimental: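 Cellular thermal proteome profiling in HeLa cells treated with 1 mM arsenate for 1 h (DMSO pretreatment), heated to ten temperatures (37-66.3 °C). Soluble protein was quantified by TMT mass spectrometry relative to DMSO controls; the thermal stability score was transformed to a z-score; mean of n = 3 experiments.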

[3] = arsenate co-treatment: 1 mM arsenate 1 h
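Further: each temperature applied for 3 min, abundance score taken as mean log2 fold change at the two lowest temperatures, z-score obtained by mean subtraction and division by SD.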

UniProt Q8N6N3, sequence (Q8N6N3 whole entry): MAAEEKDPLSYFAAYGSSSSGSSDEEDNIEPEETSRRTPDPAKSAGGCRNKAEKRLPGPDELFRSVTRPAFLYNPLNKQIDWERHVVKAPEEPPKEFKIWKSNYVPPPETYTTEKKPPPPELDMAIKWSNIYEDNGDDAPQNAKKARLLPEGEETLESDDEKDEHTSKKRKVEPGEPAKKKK
UniProt Q9BXK5, sequence (Q9BXK5 whole entry): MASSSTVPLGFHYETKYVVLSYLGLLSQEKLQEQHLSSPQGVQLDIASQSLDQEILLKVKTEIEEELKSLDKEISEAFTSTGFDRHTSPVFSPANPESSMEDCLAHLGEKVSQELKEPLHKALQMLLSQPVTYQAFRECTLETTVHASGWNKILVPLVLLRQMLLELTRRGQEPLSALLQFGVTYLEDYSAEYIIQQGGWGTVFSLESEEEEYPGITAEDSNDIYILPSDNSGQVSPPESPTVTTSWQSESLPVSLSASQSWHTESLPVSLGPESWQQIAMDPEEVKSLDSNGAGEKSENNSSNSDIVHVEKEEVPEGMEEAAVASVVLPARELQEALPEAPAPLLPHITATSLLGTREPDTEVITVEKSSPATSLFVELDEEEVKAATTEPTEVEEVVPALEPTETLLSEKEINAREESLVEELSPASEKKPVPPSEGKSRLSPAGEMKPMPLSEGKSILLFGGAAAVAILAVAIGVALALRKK
UniProt Q9BQE3, sequence (Q9BQE3 whole entry): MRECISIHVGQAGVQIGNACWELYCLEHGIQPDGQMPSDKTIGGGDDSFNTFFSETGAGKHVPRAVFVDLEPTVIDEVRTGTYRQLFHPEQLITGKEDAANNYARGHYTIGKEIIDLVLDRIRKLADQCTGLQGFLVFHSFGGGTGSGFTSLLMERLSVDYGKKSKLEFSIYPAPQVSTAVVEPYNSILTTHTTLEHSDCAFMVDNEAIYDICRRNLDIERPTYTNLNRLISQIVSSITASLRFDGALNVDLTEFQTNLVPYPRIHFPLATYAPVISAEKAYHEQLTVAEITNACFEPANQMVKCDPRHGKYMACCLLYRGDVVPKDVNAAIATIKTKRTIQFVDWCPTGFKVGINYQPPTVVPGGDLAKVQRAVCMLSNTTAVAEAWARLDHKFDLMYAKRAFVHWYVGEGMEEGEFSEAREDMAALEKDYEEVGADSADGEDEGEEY
UniProt Q9BVV6, sequence (Q9BVV6 whole entry): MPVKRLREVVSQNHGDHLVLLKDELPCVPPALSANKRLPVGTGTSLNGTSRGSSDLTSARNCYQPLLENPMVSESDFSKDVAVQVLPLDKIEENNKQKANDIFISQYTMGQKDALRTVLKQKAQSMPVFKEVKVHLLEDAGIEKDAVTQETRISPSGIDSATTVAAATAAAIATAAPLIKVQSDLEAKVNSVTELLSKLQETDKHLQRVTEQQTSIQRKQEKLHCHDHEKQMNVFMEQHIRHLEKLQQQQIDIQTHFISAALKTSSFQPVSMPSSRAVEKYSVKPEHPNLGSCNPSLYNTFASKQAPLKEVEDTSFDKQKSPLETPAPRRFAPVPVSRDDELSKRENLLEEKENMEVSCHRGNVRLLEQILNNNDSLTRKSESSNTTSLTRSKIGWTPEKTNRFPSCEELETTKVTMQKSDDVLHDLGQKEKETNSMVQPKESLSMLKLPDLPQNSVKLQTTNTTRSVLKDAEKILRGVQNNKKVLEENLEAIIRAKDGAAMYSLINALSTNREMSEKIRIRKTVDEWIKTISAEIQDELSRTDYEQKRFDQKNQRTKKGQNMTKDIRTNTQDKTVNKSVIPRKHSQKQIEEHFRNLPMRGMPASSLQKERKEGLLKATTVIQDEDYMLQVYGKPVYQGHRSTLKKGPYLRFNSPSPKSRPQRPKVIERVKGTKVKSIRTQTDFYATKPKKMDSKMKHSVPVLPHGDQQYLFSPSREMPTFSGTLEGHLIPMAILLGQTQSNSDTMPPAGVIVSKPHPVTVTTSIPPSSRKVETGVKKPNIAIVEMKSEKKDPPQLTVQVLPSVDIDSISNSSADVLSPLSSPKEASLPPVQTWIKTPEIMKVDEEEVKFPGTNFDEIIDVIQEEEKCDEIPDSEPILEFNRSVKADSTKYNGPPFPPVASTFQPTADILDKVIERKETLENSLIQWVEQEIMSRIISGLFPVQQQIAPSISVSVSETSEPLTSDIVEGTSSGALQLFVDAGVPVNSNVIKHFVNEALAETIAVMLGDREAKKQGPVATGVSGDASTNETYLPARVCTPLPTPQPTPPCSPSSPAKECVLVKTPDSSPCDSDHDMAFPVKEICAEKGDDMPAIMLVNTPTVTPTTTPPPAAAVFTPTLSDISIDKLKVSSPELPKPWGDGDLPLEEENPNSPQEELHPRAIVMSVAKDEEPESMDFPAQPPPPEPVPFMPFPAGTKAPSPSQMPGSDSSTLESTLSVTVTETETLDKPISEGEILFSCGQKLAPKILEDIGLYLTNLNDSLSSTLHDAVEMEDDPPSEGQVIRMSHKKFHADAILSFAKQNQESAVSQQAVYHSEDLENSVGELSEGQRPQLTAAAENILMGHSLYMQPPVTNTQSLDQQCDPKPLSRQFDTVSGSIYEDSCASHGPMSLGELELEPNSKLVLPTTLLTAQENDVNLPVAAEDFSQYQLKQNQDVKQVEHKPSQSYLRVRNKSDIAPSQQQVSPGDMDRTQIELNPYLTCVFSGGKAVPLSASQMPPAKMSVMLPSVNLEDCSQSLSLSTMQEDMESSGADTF
UniProt P17655, sequence (P17655 whole entry): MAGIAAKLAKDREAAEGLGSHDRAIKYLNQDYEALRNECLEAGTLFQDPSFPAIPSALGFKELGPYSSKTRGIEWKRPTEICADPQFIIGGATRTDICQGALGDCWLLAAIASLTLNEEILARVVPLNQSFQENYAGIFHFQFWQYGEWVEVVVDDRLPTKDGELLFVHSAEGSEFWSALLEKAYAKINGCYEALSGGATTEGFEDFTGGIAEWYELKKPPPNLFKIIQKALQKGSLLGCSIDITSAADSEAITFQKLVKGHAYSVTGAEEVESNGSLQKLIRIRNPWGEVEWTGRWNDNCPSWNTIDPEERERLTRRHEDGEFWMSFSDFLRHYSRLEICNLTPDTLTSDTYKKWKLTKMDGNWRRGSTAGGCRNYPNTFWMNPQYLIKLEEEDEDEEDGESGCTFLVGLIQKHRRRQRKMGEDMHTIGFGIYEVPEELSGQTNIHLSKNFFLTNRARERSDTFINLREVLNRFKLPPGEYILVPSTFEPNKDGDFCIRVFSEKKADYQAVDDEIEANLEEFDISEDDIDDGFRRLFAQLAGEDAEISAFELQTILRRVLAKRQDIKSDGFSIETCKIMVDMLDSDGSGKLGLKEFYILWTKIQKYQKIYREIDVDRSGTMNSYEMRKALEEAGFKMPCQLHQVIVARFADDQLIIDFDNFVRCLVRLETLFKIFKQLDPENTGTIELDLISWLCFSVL
UniProt Q9BPY3, sequence (Q9BPY3 whole entry): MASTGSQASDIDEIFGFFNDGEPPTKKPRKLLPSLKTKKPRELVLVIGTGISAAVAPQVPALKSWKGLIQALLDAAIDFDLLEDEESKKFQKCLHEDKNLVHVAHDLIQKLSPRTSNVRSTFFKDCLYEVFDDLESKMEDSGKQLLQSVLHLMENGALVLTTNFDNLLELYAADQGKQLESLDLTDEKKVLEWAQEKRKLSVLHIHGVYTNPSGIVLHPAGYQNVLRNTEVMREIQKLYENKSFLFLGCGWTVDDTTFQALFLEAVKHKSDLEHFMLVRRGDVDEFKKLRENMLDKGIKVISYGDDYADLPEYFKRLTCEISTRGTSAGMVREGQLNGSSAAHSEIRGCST
UniProt P07686, sequence (P07686 whole entry): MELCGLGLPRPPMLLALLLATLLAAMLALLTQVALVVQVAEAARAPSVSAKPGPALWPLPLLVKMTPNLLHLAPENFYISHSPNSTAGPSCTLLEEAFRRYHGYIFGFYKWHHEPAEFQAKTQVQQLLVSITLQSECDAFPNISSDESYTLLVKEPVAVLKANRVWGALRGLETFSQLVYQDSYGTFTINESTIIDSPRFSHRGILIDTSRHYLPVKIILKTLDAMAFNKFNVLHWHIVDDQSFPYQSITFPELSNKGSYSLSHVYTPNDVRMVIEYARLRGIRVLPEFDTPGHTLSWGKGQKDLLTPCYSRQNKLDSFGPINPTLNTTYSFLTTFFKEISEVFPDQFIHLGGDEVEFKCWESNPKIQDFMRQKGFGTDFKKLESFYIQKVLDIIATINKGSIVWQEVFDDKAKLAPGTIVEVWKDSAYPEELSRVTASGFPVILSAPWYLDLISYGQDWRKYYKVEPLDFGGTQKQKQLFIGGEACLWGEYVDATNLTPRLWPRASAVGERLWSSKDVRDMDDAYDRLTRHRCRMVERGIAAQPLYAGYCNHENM
UniProt P23258, sequence (P23258 whole entry): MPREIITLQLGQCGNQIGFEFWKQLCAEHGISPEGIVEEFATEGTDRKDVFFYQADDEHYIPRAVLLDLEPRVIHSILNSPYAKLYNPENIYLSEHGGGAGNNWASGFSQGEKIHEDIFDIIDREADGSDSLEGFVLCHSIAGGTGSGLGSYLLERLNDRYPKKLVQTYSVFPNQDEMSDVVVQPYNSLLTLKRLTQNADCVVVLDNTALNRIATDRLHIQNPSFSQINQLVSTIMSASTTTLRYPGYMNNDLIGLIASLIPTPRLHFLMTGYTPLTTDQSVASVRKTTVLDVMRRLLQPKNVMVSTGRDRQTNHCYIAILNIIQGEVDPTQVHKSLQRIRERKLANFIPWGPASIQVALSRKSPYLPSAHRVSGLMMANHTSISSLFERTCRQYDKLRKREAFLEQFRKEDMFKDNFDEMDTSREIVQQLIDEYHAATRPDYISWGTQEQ
UniProt P41223, sequence (P41223 whole entry): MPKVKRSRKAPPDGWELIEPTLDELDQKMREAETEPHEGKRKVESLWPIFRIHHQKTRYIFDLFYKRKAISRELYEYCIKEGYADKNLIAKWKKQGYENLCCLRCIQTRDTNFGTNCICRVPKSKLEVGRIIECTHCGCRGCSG
UniProt Q9HD34, sequence (Q9HD34 whole entry): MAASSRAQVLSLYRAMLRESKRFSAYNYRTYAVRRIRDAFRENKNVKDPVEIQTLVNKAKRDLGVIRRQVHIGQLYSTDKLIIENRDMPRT

Target	thermal stability z-score [1, 3]	thermal stability z-score ([1]; arsenate co-treatment: none)	thermal stability z-score [2]
IGF2BP1 (UniProt Q9NZI8)	-0.0135	0.286	-0.379
KNSTRN (UniProt Q9Y448)	-0.729	-0.171	1.36
EP300 (UniProt Q09472)	-0.212	0.127	-0.866
RBM8A (UniProt Q9Y5S9)	-0.156	0.28	0.0981
BUD31 (UniProt P41223)	0.0866	0.568	-3.38
WDR26 (UniProt Q9H7D7)	-0.326	-0.319	-0.602
OTUD5 (UniProt Q96G74)	-0.721	0.294	1.72
EIF2D (UniProt P41214)	-1.12	-0.337	-1.22
TBC1D5 (UniProt Q92609)	-0.097	-0.749	-0.0438
CYR61 (UniProt O00622)	-1.72	-1.47	-4.51
GPBP1L1 (UniProt Q9HC44)	-0.469	-0.326	0.365
ZCCHC8 (UniProt Q6NZY4)	0.464	0.344	-0.318
TIMMDC1 (UniProt Q9NPL8)	0.185	-0.271	0.538
GAMT (UniProt Q14353)	-0.374	0.506	-0.0271
ARMC6 (UniProt Q6NXE6)	-0.546	-0.743	1.37
KHDRBS1 (UniProt Q07666)	-0.091	0.104	-1.16
CAPN2 (UniProt P17655)	0.345	0.208	0.109
TUBG1 (UniProt P23258)	0.135	-0.106	0.415
MRPL46 (UniProt Q9H2W6)	-0.218	0.1	-0.0514
BLOC1S4 (UniProt Q9NUP1)	1.47	0.395	0.401
BRD9 (UniProt Q9H8M2)	0.218	0.153	0.496
ENAH (UniProt Q8N8S7)	-0.14	0.013	-0.515
BCL2L13 (UniProt Q9BXK5)	0.605	0.206	0.655
TTC5 (UniProt Q8N0Z6)	-0.0841	0.0677	-0.0548

Target	thermal stability z-score [1, 3]	thermal stability z-score ([1]; arsenate co-treatment: none)	thermal stability z-score [2]
GPATCH4 (UniProt Q5T3I0)	1.04	0.36	0.695
PGD (UniProt P52209)	0.318	0.403	0.259
ODF2 (UniProt Q5BJF6)	0.0591	0.0281	-0.129
P4HB (UniProt P07237)	-0.224	0.393	0.47
ITPR2 (UniProt Q14571)	-0.269	-0.265	-0.238
TBCD (UniProt Q9BTW9)	-0.558	-0.301	0.705
DPF2 (UniProt Q92785)	2.86	2.98	-5.05
C1ORF52 (UniProt Q8N6N3)	0.477	0.0555	-0.417
DNAH1 (UniProt Q9P2D7)	-0.00768	0.171	0.0212
CSNK1E (UniProt P49674)	0.18	-0.0385	-0.184
HEL	-0.604	-0.392	-0.18
ABCB7 (UniProt O75027)	0.117	0.0859	0.456
RHPN2 (UniProt Q8IUC4)	-0.97	-1.32	0.193
TUBA1C (UniProt Q9BQE3)	-0.163	0.681	-0.265
RBMX (UniProt P38159)	1.51	0.311	-0.366
NUP43 (UniProt Q8NFH3)	2.43	0.779	1.58
TTC17 (UniProt Q96AE7)	-0.85	-0.317	0.453
HINT1 (UniProt P49773)	1.13	0.532	-0.189
KIAA0586 (UniProt Q9BVV6)	0.234	0.264	-0.133
TP53BP1 (UniProt Q12888)	1.4	0.891	-0.0759
LOC102723897|WASH3P|WASH2P	0.179	-0.15	0.051
FAM118B (UniProt Q9BPY3)	0.49	-0.244	0.57
TRAF4 (UniProt Q9BUZ4)	-0.818	-0.748	-4.33
HSDL2 (UniProt Q6YN16)	0.183	0.156	0.41

Target	thermal stability z-score [1, 3]	thermal stability z-score ([1]; arsenate co-treatment: none)	thermal stability z-score [2]
NRDE2 (UniProt Q9H7Z3)	0.0849	0.0451	-0.184
SRSF3 (UniProt P84103)	1.69	0.987	-0.485
RANBP2 (UniProt P49792)	-0.733	-0.425	1.49
FKBP3 (UniProt Q00688)	0.676	0.552	-0.406
GPCPD1 (UniProt Q9NPB8)	0.65	0.136	2.8
NOL7 (UniProt Q9UMY1)	0.225	-0.325	-0.698
GLMN (UniProt Q92990)	-0.559	-0.296	-0.181
DDA1 (UniProt Q9BW61)	0.456	-0.211	0.665
WDR18 (UniProt Q9BV38)	1.38	0.361	0.122
PCYT1A (UniProt P49585)	0.0432	0.294	1.78
HEXB (UniProt P07686)	-0.421	-0.254	0.149
NUDT5 (UniProt Q9UKK9)	0.871	0.881	0.191
CDK13 (UniProt Q14004)	0.155	-0.0381	-0.0661
ACOT8 (UniProt O14734)	0.492	0.113	0.0313
LYRM4 (UniProt Q9HD34)	-0.401	0.0692	-0.348
NSMCE4A (UniProt Q9NXX6)	-0.245	-0.35	-0.055
PRPF3 (UniProt O43395)	2.57	2.44	-0.0589
AUH (UniProt Q13825)	-0.0558	0.0366	0.0655
LNP (UniProt Q9C0E8)	-1.09	-0.771	-0.997
MRPL20 (UniProt Q9BYC9)	0.411	0.239	-0.00694
HERC2 (UniProt O95714)	-0.947	-1.04	0.0415
ATG4A (UniProt Q8WYN0)	0.167	0.0706	-0.744
ARF5 (UniProt P84085)	-0.258	-0.517	-0.187
